Where a name gives a salt, the structure may show the parent alone.
Key:
human 5-HT6R = target: T1, human 5-HT6R (Homo sapiens, UniProt P50406); assay: Radioligand binding assay, 5-HT6R ([3H]-LSD); details: for decrease in affinity for 5-HT6R compared to MST4: ratio of Ki values vs MST4 (Ki = 11 nM); for Ki: [3H]-LSD, HEK293 cells stably expressing human 5-HT6R, average of at least two independent experiments
T1 construct: expressed in transfected cells; host or cells: HEK293
Method: The affinity of compounds (1–25) for 5-HT6R was evaluated in the radioligand binding assay in HEK293 cells stably expressing human 5-HT6R. [^3H]-LSD as a radioligand was used. […] All results are collected in Table 1, Table 2 and Table 3.
Radioligand binding assays were used to determine the affinity of the synthesized compounds for human serotonin 5-HT6R, 5-HT2AR, 5-HT7R and dopamine D2R, which were stably expressed in HEK293 cells or CHOk1 cells (5-HT2AR). This was done as described previously.

human 5-HT2AR = target: T2, human 5-HT2AR (Homo sapiens, UniProt P28223); assay: Radioligand binding assay, 5-HT2AR ([3H]-ketanserin); details: CHO-K1 cells stably expressing human 5-HT2AR
T2 construct: expressed in transfected cells; host or cells: CHO-K1
T2 sequence (P28223 whole entry): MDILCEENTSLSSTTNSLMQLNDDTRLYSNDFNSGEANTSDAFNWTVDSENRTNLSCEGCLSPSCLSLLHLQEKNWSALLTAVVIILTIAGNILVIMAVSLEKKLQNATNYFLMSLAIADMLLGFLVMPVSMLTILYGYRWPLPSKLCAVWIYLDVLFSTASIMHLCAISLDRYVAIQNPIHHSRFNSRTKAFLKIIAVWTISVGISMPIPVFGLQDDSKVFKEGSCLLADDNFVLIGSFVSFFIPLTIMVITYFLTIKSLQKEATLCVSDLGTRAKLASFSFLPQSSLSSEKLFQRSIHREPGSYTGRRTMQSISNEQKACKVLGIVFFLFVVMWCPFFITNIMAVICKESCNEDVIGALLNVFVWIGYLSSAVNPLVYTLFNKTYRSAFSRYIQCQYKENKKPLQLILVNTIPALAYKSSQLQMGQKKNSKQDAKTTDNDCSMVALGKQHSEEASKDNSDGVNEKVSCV
Method: (§1) Affinity for serotonin 5-HT2A, 5-HT7 and dopamine D2 receptors (D2R) as protein off-targets was evaluated in the radioligand binding assays. In CHO-K1 cells, it was stably expressed human 5-HT2AR, whereas human 5-HT7R and D2R were stably expressed in HEK293 cells. […] A particularly weak affinity towards this receptor was shown through compounds of series 1 (compounds 1–7) and series 2 (compounds 8–13). […]. Radioligand binding assays were used to determine the affinity of the synthesized compounds for human serotonin 5-HT6R, 5-HT2AR, 5-HT7R and dopamine D2R, which were stably expressed in HEK293 cells or CHOk1 cells (5-HT2AR). This was done as described previously.

human 5-HT7R = target: T3, human 5-HT7R (Homo sapiens, UniProt P34969); assay: Radioligand binding assay, 5-HT7R ([3H]-5-CT); details: HEK293 cells stably expressing human 5-HT7R
T3 construct: expressed in transfected cells; host or cells: HEK293
T3 sequence (P34969 whole entry): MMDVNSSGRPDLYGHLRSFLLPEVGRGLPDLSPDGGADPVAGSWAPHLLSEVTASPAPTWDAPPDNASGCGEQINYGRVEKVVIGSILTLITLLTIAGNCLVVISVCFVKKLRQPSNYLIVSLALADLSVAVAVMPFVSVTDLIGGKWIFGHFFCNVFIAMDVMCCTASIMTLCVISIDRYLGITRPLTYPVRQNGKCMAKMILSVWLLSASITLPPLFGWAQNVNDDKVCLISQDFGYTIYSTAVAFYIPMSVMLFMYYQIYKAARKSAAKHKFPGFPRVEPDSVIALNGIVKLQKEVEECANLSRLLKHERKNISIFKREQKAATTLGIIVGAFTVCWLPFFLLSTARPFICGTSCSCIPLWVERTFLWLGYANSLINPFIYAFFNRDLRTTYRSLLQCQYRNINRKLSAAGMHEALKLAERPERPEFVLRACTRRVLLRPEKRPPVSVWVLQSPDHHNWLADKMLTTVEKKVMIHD
Method: as §1

human D2R = target: T4, human D2R (Homo sapiens, UniProt P14416); assay: Radioligand binding assay, D2R ([3H]-raclopride); details: HEK293 cells stably expressing human D2R
T4 construct: expressed in transfected cells; host or cells: HEK293
T4 sequence (P14416 whole entry): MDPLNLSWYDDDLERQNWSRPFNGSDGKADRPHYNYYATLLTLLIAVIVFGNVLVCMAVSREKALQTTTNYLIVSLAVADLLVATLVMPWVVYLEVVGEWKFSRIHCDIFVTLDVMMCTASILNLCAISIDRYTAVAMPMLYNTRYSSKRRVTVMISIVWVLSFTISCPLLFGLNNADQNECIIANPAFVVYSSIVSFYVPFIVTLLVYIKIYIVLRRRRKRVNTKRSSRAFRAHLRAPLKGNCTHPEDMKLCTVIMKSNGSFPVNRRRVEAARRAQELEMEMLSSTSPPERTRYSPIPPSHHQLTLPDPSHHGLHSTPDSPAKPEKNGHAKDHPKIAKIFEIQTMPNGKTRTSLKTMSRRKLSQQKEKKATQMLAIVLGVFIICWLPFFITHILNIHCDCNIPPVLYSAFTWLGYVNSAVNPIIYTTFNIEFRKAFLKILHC
Method: as §1

T1 sequence (P50406 whole entry): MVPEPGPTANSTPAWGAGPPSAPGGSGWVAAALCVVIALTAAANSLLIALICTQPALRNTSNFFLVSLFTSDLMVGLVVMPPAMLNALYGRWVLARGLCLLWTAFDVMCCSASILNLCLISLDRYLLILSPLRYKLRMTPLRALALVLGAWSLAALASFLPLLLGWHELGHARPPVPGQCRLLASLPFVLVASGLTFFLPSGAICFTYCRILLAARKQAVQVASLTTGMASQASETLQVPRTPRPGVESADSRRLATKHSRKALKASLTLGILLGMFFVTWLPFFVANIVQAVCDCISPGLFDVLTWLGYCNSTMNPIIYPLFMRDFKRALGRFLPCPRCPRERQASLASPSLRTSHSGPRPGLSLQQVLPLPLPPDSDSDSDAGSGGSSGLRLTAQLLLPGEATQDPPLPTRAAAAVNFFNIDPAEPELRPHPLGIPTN

For `CN1CCN(c2nc(N)nc(COc3ccc(C(C)(C)C)cc3C(C)(C)C)n2)CC1` (as salt: hydrochloride) [Compound 13, 4-((2,4-(di-tert-Butyl)phenoxy)methyl)-6-(4-methylpiperazin-1-yl)-1,3,5-triazin-2-amine hydrochloride], which melting point is on record?
The melting point was 284 to 287 °C.

Which “decrease in affinity for 5-HT6R compared to MST4” value (human 5-HT6R) does the source give for `Cc1cccc(OCc2nc(N)nc(N3CCN(C)CC3)n2)c1` [Compound 1] here?
The value was 19 fold.

Which results are given for `CC(C)c1ccccc1OCc1nc(N)nc(N2CCN(C)CC2)n1` [Compound 2, 4-((2-Isopropylphenoxy)methyl)-6-(4-methylpiperazin-1-yl)-1,3,5-triazin-2-amine]?
Ki (human 5-HT6R): 21 nM; decrease in affinity for 5-HT6R compared to MST4 (human 5-HT6R): 2 fold; Ki (human 5-HT2AR): 1270 nM; Ki (human 5-HT7R): 16300 nM; melting point: 140 to 142 °C

Which Ki (human 5-HT6R) does the source give for `CC(C)c1cccc(OCc2nc(N)nc(N3CCN(C)CC3)n2)c1` [Compound 4, 4-((3-Isopropylphenoxy)methyl)-6-(4-methylpiperazin-1-yl)-1,3,5-triazin-2-amine] here?
Its Ki is 41 nM.

What about the Ki (human 5-HT2AR) of the same compound?
Its Ki is 2610 nM.

What about the Ki (human 5-HT7R) of the same compound?
The Ki was 5730 nM.

What about the Ki (human D2R) of the same compound?
Its Ki is 1790 nM.

What about the melting point of the same compound?
The melting point was 103 to 105 °C.

Which Ki (human 5-HT6R) does the source give for `CN1CCN(c2nc(N)nc(COc3cccc(C(C)(C)C)c3)n2)CC1` [Compound 5, 4-((3-(tert-Butyl)phenoxy)methyl)-6-(4-methylpiperazin-1-yl)-1,3,5-triazin-2-amine] here?
Its Ki is 108 nM.

What about the Ki (human 5-HT2AR) of the same compound?
The Ki was 3110 nM.

What about the Ki (human 5-HT7R) of the same compound?
Its Ki is 15500 nM.

And the melting point?
The melting point was 101.2 to 104.1 °C.

For `CC(C)c1ccc(OCc2nc(N)nc(N3CCN(C)CC3)n2)cc1` [Compound 6, 4-((4-Isopropylphenoxy)methyl)-6-(4-methylpiperazin-1-yl)-1,3,5-triazin-2-amine], which Ki (human 5-HT6R) is on record?
The Ki was 416 nM.

What about the Ki (human 5-HT2AR) of the same compound?
The Ki was 248 nM.

And the Ki (human 5-HT7R)?
Its Ki is 10100 nM.

And the melting point?
Its melting point is 133 to 135 °C.

What does the source list for `CN1CCN(c2nc(N)nc(COc3ccc(C(C)(C)C)cc3)n2)CC1` [Compound 7, 4-((4-(tert-Butyl)phenoxy)methyl)-6-(4-methylpiperazin-1-yl)-1,3,5-triazin-2-amine]?
Ki (human 5-HT6R): 150 nM; Ki (human 5-HT2AR): 549 nM; Ki (human 5-HT7R): 4140 nM; Ki (human D2R): 3130 nM; melting point: 104.4 °C (dec.)

With `Cc1ccc(C(C)(C)C)c(OCc2nc(N)nc(N3CCN(C)CC3)n2)c1.Cl` [Compound 8, 4-((2-(tert-Butyl)-5-methylphenoxy)methyl)-6-(4-methylpiperazin-1-yl)-1,3,5-triazin-2-amine hydrochloride] as the compound, how does the Ki (human 5-HT6R) read?
Its Ki is 6 nM.

And the Ki (human 5-HT2AR)?
Its Ki is 1240 nM.

What about the Ki (human 5-HT7R) of the same compound?
Its Ki is 15100 nM.

And the Ki (human D2R)?
The Ki was 1570 nM.

What about the melting point of the same compound?
The melting point was 259 °C (dec.).

What does the source list for `Cc1ccc(OCc2nc(N)nc(N3CCN(C)CC3)n2)c(C(C)(C)C)c1` [Compound 9, 4-((2-(tert-Butyl)-4-methylphenoxy)methyl)-6-(4-methylpiperazin-1-yl)-1,3,5-triazin-2-amine]?
Ki (human 5-HT6R): 48 nM; Ki (human 5-HT2AR): 1930 nM; Ki (human 5-HT7R): 10900 nM; Ki (human D2R): 2300 nM; melting point: 146.5 °C (dec.)

For `Cc1cccc(C(C)(C)C)c1OCc1nc(N)nc(N2CCN(C)CC2)n1` [Compound 10, 4-((2-(tert-Butyl)-6-methylphenoxy)methyl)-6-(4-methylpiperazin-1-yl)-1,3,5-triazin-2-amine], which Ki (human 5-HT6R) is on record?
The Ki was 236 nM.

What about the Ki (human 5-HT7R) of the same compound?
Its Ki is 16600 nM.

And the melting point?
The melting point was 177 to 179 °C (dec.).

Which Ki (human 5-HT6R) does the source give for `CC(C)c1cccc(C(C)C)c1OCc1nc(N)nc(N2CCN(C)CC2)n1` [Compound 11, 4-((2,6-Diisopropylphenoxy)methyl)-6-(4-methylpiperazin-1-yl)-1,3,5-triazin-2-amine] here?
Its Ki is 825 nM.

And the Ki (human 5-HT2AR)?
Its Ki is 7800 nM.

And the Ki (human 5-HT7R)?
The Ki was 33600 nM.

What about the melting point of the same compound?
Its melting point is 160 to 163 °C.

With `CN1CCN(c2nc(N)nc(COc3c(C(C)(C)C)cccc3C(C)(C)C)n2)CC1` [Compound 12, 4-((2,6-(di-tert-Butyl)phenoxy)methyl)-6-(4-methylpiperazin-1-yl)-1,3,5-triazin-2-amine hydrochloride] as the compound, how does the Ki (human 5-HT6R) read?
The Ki was 379 nM.

And the Ki (human 5-HT7R)?
The Ki was 8090 nM.

For `CN1CCN(c2nc(N)nc(COc3ccc(C(C)(C)C)cc3C(C)(C)C)n2)CC1` [Compound 13, 4-((2,4-(di-tert-Butyl)phenoxy)methyl)-6-(4-methylpiperazin-1-yl)-1,3,5-triazin-2-amine hydrochloride], which Ki (human 5-HT6R) is on record?
The Ki was 162 nM.

What about the Ki (human 5-HT2AR) of the same compound?
Its Ki is 760 nM.

And the Ki (human 5-HT7R)?
The Ki was 8470 nM.

What about the Ki (human D2R) of the same compound?
Its Ki is 2740 nM.

Which results are given for `Cc1ccc(C(C)C)c(OCCCc2nc(N)nc(N3CCN(C)CC3)n2)c1` [Compound 14, 4-(3-(2-Isopropyl-5-methylphenoxy)propyl)-6-(4-methylpiperazin-1-yl)-1,3,5-triazin-2-amine]?
Ki (human 5-HT6R): 412 nM; Ki (human 5-HT2AR): 1690 nM; Ki (human 5-HT7R): 6660 nM; Ki (human D2R): 1590 nM; melting point: 77 °C

Which results are given for `CC(C)c1ccccc1OCCCc1nc(N)nc(N2CCN(C)CC2)n1.Cl` [Compound 15, 4-(3-(2-Isopropylphenoxy)propyl)-6-(4-methylpiperazin-1-yl)-1,3,5-triazin-2-amine hydrochloride]?
Ki (human 5-HT6R): 221 nM; Ki (human 5-HT2AR): 489 nM; Ki (human 5-HT7R): 8870 nM; Ki (human D2R): 2430 nM; melting point: 235 °C

Which Ki (human 5-HT6R) does the source give for `CC(C)c1ccc(OCCCc2nc(N)nc(N3CCN(C)CC3)n2)cc1` [Compound 16, 4-(3-(4-Isopropylphenoxy)propyl)-6-(4-methylpiperazin-1-yl)-1,3,5-triazin-2-amine] here?
The Ki was 1110 nM.

And the Ki (human 5-HT2AR)?
Its Ki is 1170 nM.

What about the Ki (human 5-HT7R) of the same compound?
Its Ki is 5120 nM.

What about the Ki (human D2R) of the same compound?
Its Ki is 704 nM.

What about the melting point of the same compound?
The melting point was 92 °C.

With `Cc1cccc(OCCCc2nc(N)nc(N3CCN(C)CC3)n2)c1` [Compound 17, 4-(4-Methylpiperazin-1-yl)-6-(3-(m-tolyloxy)propyl)-1,3,5-triazin-2-amine] as the compound, how does the Ki (human 5-HT6R) read?
The Ki was 1460 nM.

And the Ki (human 5-HT2AR)?
The Ki was 3850 nM.

What about the Ki (human 5-HT7R) of the same compound?
The Ki was 30200 nM.

What about the Ki (human D2R) of the same compound?
Its Ki is 2600 nM.

What about the melting point of the same compound?
Its melting point is 114 to 117 °C.

Which results are given for `Cc1ccccc1OCCCc1nc(N)nc(N2CCN(C)CC2)n1` [Compound 18, 4-(4-Methylpiperazin-1-yl)-6-(3-(o-tolyloxy)propyl)-1,3,5-triazin-2-amine]?
Ki (human 5-HT6R): 574 nM; Ki (human 5-HT2AR): 1440 nM; Ki (human 5-HT7R): 14900 nM; Ki (human D2R): 1760 nM; melting point: 83 °C

Which Ki (human 5-HT6R) does the source give for `Cc1ccc(C(C)C)c(OCCCCc2nc(N)nc(N3CCN(C)CC3)n2)c1.Cl` [Compound 19, 4-(4-(2-Isopropyl-5-methylphenoxy)butyl)-6-(4-methylpiperazin-1-yl)-1,3,5-triazin-2-amine hydrochloride] here?
Its Ki is 142 nM.

What about the Ki (human 5-HT2AR) of the same compound?
The Ki was 687 nM.

What about the Ki (human 5-HT7R) of the same compound?
Its Ki is 638 nM.

And the Ki (human D2R)?
Its Ki is 3200 nM.

And the melting point?
Its melting point is 239 °C.

Which Ki (human 5-HT6R) does the source give for `CC(C)c1ccccc1OCCCCc1nc(N)nc(N2CCN(C)CC2)n1` [Compound 20, 4-(4-(2-Isopropylphenoxy)butyl)-6-(4-methylpiperazin-1-yl)-1,3,5-triazin-2-amine] here?
Its Ki is 43 nM.

What about the Ki (human 5-HT2AR) of the same compound?
Its Ki is 677 nM.

What about the Ki (human 5-HT7R) of the same compound?
Its Ki is 665 nM.

What about the Ki (human D2R) of the same compound?
Its Ki is 5690 nM.

And the melting point?
The melting point was 59 °C.

Which Ki (human 5-HT6R) does the source give for `Cc1cccc(OCCCCc2nc(N)nc(N3CCN(C)CC3)n2)c1` [Compound 21, 4-(4-Methylpiperazin-1-yl)-6-(4-(m-tolyloxy)butyl)-1,3,5-triazin-2-amine] here?
The Ki was 559 nM.

What about the Ki (human 5-HT2AR) of the same compound?
The Ki was 952 nM.

What about the Ki (human 5-HT7R) of the same compound?
The Ki was 6250 nM.

And the Ki (human D2R)?
Its Ki is 612 nM.

And the melting point?
The melting point was 99 to 101 °C.

With `Cc1ccc(C(C)C)c(OCCCCCc2nc(N)nc(N3CCN(C)CC3)n2)c1` [Compound 22, 4-(5-(2-Isopropyl-5-methylphenoxy)pentyl)-6-(4-methylpiperazin-1-yl)-1,3,5-triazin-2-amine] as the compound, how does the Ki (human 5-HT6R) read?
Its Ki is 282 nM.

What about the Ki (human 5-HT2AR) of the same compound?
Its Ki is 709 nM.

And the Ki (human 5-HT7R)?
Its Ki is 771 nM.

And the Ki (human D2R)?
The Ki was 837 nM.

And the melting point?
The melting point was 75 °C (dec.).
